Assay results from patent publication EP4574151A1, “INHIBITORS OF G12V-MUTATED RAS PROTEIN TO TREAT CANCER” (Personather Spolka Z Ograniczona Odpowiedzialnoscia, priority 2023, dated 2025).

Key:
[1] = test system: SW620 cells (with RASG12V mutation); test: Crystal violet cytotoxicity test (IC50) in KRASG12V positive cells; format: cell-based; settings: summary statement
Text: IC50 (half-maximal inhibitory concentration) is the concentration value of a tested compound which inhibits biochemical and biological functions of cells in half of the tested population. Determining this indicator is extremely important for assessing the cytotoxicity of molecules with therapeutic potential.
The first step in developing the methodology for determining IC50 was to conduct density tests to determine the appropriate number of cells to use in cytotoxicity tests. The different content of bovine fetal serum in the culture medium was also investigated to rule out any potential impact on the reduction in cell count, regardless of the analyzed molecules.
(§1) As a research model, colon cancer and lung cancer cell lines (sensitive lines) were used, including SW620, SW480, and COR-L23, respectively, which are characterized by the KRASG12V gene mutation and lack of other alterations in genes belonging to the RAS protein signaling pathway, as well as a stable line of normal cells (mouse fibroblasts), which serve as a platform for evaluating the impact of tested compounds on non-cancer cells. Below is the result for one of the analyzed cell lines with the mutation. Similar differences in IC50 values compared to normal cells were obtained for the other cell lines mentioned above with the RASG12V mutation.
(§2) The effect of molecules on the biology of selected cell lines to assess their cytotoxicity using the IC50 indicator was carried out according to the protocol below: • 1. The cells of the tested lines were seeded in wells of a 96-well plate at specified densities. • 2. After seeding, the cells were subjected to a 24-hour incubation in medium with a 1% and 2.5% addition of serum (sensitive lines) or in medium with a 0.5% addition of serum (normal line). • 3. The cells were exposed to selected molecules at selected concentrations. The control was provided by the culture medium without any added compounds. Concentrations of the tested molecules [uM]: • □ NIH3T3: 500; 250; 125; 62,5; 31,25 • □ SW620: 60; 30; 15; 7,5; 3,75 • 4. After 72 hours of incubation, the culture medium was removed and the cells were washed twice with buffer saline solution (PBS). Then, the cells were incubated for 10 minutes with a 0.1% solution of crystal violet at room temperature (Merck Millipore). • 5. After 10 minutes, the crystal violet solution was removed and the wells of the 96-well plate were washed twice with PBS solution. • 4. 50% ice-cold acetic acid solution was added to each well and incubated again for 10 minutes at room temperature on a shaker at 650 rpm. • 5. Absorbance measurement was performed using a plate reader, at a wavelength of λ = 540 nm

[2] = test system: NCI-H1975; test: Toxicity against cancer cells expressing wild type RAS; format: cell-based; settings: summary statement
Experimental: The results of in vitro analyses were presented in the examples. Commercially available cancer cell lines were used for the studies, including SW480, SW620, and COR-L23, showing endogenous expression of KRASG12V, as well as a cell line with exogenously introduced KRASG12V mutation (using methods of genetic engineering) - the DK-MGEGFRvIIIKRASG12V line. Additionally, the cancer cell line NCI- H1975, characterized by the expression of wild type RASWT proteins, was also analyzed.

[3] = test system: NIH/3T3 cell line - immortalized mouse fibroblasts; test: Crystal violet cytotoxicity test in normal cells; format: cell-based; settings: summary statement; normal cells NIH/3T3 and PER49
Text: To evaluate the toxicity of the tested compound on normal cells, the NIH/3T3 cell line - immortalized mouse fibroblasts and normal pericytes (PER49) were used.
as §1, §2

[4] = test system: BALB/c mice; test: Acute toxicity after oral administration (Acute Toxicity test TG425); format: in vivo; settings: female BALB/c mice, oral by gastric probe, 40 mg of substance in corn oil, three mice, observed two weeks
Text: The study was planned according to Acute Toxicity Test 425 (oral administration) - higher-lower-dose procedure, in accordance with the OECD regulation of October 3, 2008. The test procedure described in these guidelines is useful in minimizing the number of animals needed to estimate the acute toxicity after oral administration of potential drugs. In addition to the LD50 assessment and confidence intervals, the test allows for the observation of signs of toxicity. For this purpose, an experiment was agreed upon with the Local Ethics Committee for Animal Experimentation, using BALB/c mice. The TG425 method allows for the estimation of LD50 values with confidence intervals, and the results allow for the classification of substances according to the global harmonized system for the classification of chemicals that cause acute toxicity.
A sequential test, utilizing a maximum of 5 animals, was applied, which is known as the limit test. A test dose of either 2000 or uniquely 5000 mg/kg can be used. The testing procedures at 2000 and 5000 mg/kg differ slightly (see Sections 23-25 for the limit test at 2000 mg/kg and Sections 26-30 for the limit test at 5000 mg/kg). The selection of a sequential testing plan increases the statistical power, and a deliberate deviation from the limit test rejection procedure was made for compounds with an LD50 near the limit dose; i.e. committing an error on the side of caution. As with any limit test protocol, the probability of correct compound classification will decrease, as the actual LD50 value more closely resembles the limit dose.
• 1. Female Balb/c mice, which were 50-56 days postpartum, were used for the purposes of this experiment. • 2. Mice underwent a 1-week quarantine after being transported to the laboratory. • 3. The studied molecules (PER154A, PER160A, PER170A, PER176A) were suspended according to the TG425 protocol, i.e. 40 mg of substance in […] of laboratory corn oil and orally administered through a plastic gastro probe (used: 20ga (0.9 mm OD x 0.5 mm ID), 38 mm), which was suitable for the size of the animal (17-21 g). The mice were observed and weighed almost daily. • 4. Mouse housing conditions: up to 4 mice per cage; temperature: 23.2 - 23.40°C; humidity: 27.6 - 40.9% relative humidity. • 5. Two weeks later (time counted separately for each mouse), a resection was performed to analyze internal organs for any abnormalities.

SMILES: O=C(Nc1ccc(Br)c(Cl)c1)c1ccc2c(c1)C1C3CCC(C3)C1C(c1ccccc1)N2 (centres unmarked) [PER176A]
- toxicity against cancer cells expressing KRASG12V [1]: toxicity
- toxicity against cancer cells expressing normal RAS protein [2]: no toxicity
- toxicity against normal cells [3]: no toxicity
- safety in acute oral toxicity test [4]: safe for mice

SMILES: Cc1ccc(NC(=O)c2ccc3c(c2)C2C4CCC(C4)C2C(c2ccccc2)N3)cc1C (centres unmarked) [PER170A]
- toxicity against cancer cells expressing KRASG12V [1]: toxicity
- toxicity against cancer cells expressing normal RAS protein [2]: no toxicity
- toxicity against normal cells [3]: no toxicity
- safety in acute oral toxicity test [4]: safe for mice
